From ChEMBL document CHEMBL4303773 (Nature, 2020)

Assays:
Vero C1008 = test: Cytotoxicity of compound against Vero E6 cells by MTT assay.; conditions: chlorocebus sabaeus, vero c1008
[1] = biological target: T1, Alpha-2A adrenergic receptor (Homo sapiens, UniProt P08913); test: Activity of compound against Alpha-2A (ADRA2A) adrenergic receptor by displacement of [3H]-rauwolscine
T1 sequence (P08913 whole entry): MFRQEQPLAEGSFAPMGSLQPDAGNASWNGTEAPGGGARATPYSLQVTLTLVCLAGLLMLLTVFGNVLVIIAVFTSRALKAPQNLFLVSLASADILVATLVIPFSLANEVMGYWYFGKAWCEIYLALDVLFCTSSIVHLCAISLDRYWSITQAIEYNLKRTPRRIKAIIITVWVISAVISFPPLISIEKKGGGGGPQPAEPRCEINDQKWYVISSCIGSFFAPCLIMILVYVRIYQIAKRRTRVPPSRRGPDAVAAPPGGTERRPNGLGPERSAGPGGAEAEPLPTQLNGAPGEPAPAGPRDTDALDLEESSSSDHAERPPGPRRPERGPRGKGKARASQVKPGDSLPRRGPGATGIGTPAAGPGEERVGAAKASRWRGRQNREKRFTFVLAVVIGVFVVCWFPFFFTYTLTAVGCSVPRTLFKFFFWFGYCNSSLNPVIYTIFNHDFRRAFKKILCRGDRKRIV

[2] = biological target: T2, Muscarinic acetylcholine receptor M2 (Homo sapiens, UniProt P08172); test: Activity of compound against Muscarinic acetylcholine receptor M2 (CHRM2) by displacement of 3H-QNB
T2 sequence (P08172 whole entry): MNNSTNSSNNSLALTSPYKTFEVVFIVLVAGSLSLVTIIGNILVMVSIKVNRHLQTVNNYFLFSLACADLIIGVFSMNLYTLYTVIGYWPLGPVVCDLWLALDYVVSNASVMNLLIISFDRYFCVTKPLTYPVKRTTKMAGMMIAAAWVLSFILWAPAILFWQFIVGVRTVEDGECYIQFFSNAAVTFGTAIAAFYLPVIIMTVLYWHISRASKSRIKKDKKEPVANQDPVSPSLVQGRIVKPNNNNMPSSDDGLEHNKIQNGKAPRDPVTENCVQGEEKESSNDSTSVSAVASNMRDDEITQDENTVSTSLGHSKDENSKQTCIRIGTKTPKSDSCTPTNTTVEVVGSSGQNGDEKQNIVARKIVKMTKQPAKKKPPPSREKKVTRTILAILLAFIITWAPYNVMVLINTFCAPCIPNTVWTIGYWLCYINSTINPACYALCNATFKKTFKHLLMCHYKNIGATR

Q: Which results are given for CCCN1CCC=C(c2cc(-c3ccc(C)cc3)no2)C1?
A: pCC50 (Vero C1008): ~ 2.928; Ki [1]: 8.32 µM; Ki [2]: 24 µM
